# According to patent US7744936B2, “Method for preparing extract from wild ginseng showing anticancer activity and the composition comprising the same” (Seocksanteo Medical Co., Ltd., priority 2004, dated 2010):
# Legend:
# [1] = tested on: U937 cells (human leukemia cell line); test: MTT cell cytotoxicity on U937 cells; format: cell-based; conditions: U-937, 48 hours, adriamycin, read-out: IC50, cytotoxic effect on U937 cells
# Protocol: (§1) U937 cells (human leukemia cell line), A549 cells (human lung cancer cell line) and MDA-MB-231 (human breast cancer cell line) cells were grown on the culture dish having 100 mm diameter (TPP Co., Ltd., Switzerland) in RPMI1640 (Gibco BRL Co., Ltd., USA), supplemented with 10% fetal bovine serum which was inactivated at 37° C. in 5% CO2 and 95% air condition in a humidified incubator. […] Cells on […] culture dish were treated with 500 μl of trypsin-EDTA (Gibco BRL Co., Ltd., U.S.A.) to separate from the dish and 10 ml of fresh medium was added thereto so as to neutralize trypsin-EDTA solution and obtain cell suspension. 1×10^4 cells/well were seeded in 96-well plate and after 24 hours incubation. […] The plate was incubated for 20 minutes at room temperature and then UV absorbance the samples was measured by microplate reader (ELISA reader, DENLEY Co., Japan) to calculate the cell viability at 570 nm. The cell viability rate of negative control group treated with only medium was calculated as a 100% and those of other sample and positive control were calculated. […] The measured absorbance showing the reduced amount of existing cellular enzyme in MTT was proportioned to survival cell density. […]
# [2] = tested on: A549 cells (human lung cancer cell line); test: MTT cell cytotoxicity on A549 cells; format: cell-based; conditions: 48 hours, adriamycin, read-out: IC50, cytotoxic effect on A549 cells (text, printed A5497)
# Protocol: as §1
# [3] = tested on: MDA-MB-231 (human breast cancer cell line); test: MTT cell cytotoxicity on MDA-MB-231 cells; format: cell-based; conditions: 48 hours, adriamycin, read-out: IC50, cytotoxic effect on MDA-MB-231 cells
# Protocol: as §1
# [4] = tested on: Lewis lung carcinoma cells; test: Inhibition of tumor volume increase, Lewis lung carcinoma in mice; format: in vivo, BDF-1 male mice; conditions: 0.5 mg/mouse intraperitoneally, 2 weeks
# Protocol: To determine the inhibitory effect on the volumetric increase of cancer cell, following experiment was performed by modifying the procedure disclosed in the literature (Teruhiro et al., Cancer Res., 56, pp 2809-14, 1996).
# Lewis lung carcinoma cells (1×10^6 cells/well) which had been sub-cultured in vivo of experimental mouse and adjusted the concentration to 1×10^6 cells/well, was injected into the left armpit of BDF-1 male mice (6-week-old). After 24 hours, adriamycin in the concentration of 0.5 and 1 mg/mouse, and the extracts prepared in Comparative Example 1, 2 and Example 1, 2 in the concentration of 50 and 100 μl/mouse were injected into the mice intraperitoneally. The injection of samples was maintained for 2 weeks until the tumor volume of non-treatment group used as control group become to 2 cm^3. After 2 weeks, the tumor volume was calculated by using following mathematical formulae 1 and 2 to measure the inhibition rate of tumor volume.
# [formula] L (cm): Length of the tumor W^2 (cm^2): Width of the tumor
# [formula] A: Tumor volume (cm^3) of control group B: Tumor volume (cm^3) of sample treatment group
# [5] = tested on: splenic leucocytes; test: Immunostimulating effect on splenic leucocytes (flow cytometry); format: cell-based, BALB c mouse; conditions: 3 days
# Protocol: To determine the immunostimulating effect of the extract of the present invention, splenic leucocytes (1×10^6 cells/ml) of BALB c mouse were suspended in RPMI1640 medium (Gibco BRL Co., Ltd., USA) supplemented with 100 μg/ml of streptomycin, 100 U/ml of penicillin and 10% fetal bovine serum, and treated with 200 μl/ml of the extracts of Comparative Example 1, 2 and Example 1, 2, respectively. The solution was incubated at 37° C. in 5% CO2 and 95% air condition in a humidified incubator for 3 days and the formation of leucocytes was determined by Flow cytometry. 200 μg/ml of adriamycin treatment group was used as control group.
compound,measurement,setting,value
"COc1cccc2c1C(=O)c1c(O)c3c(c(O)c1C2=O)C[C@@](O)(C(=O)CO)C[C@@H]3O[C@H]1C[C@H](N)[C@H](O)[C@H](C)O1 [Adriamycin, adriamycin]",IC50,[1],3 µg/mL
same,IC50,[2],3 µg/mL
same,IC50,[3],3 µg/mL
same,Inhibition effect (%) on tumor volume,[4],31.20 ± 8.05%
same,Decrease of immunity,[5]; 200 μg/ml adriamycin,26.1%
same,Increase rate of lymphocyte (%),[5]; concentration 200 μg/ml,−21.6%
